PMC11111404, “Discovery of potent small-molecule inhibitors of lipoprotein(a) formation” (Nature, 2024)
Values joined by “and” are separate entries in the source; they are usually repeats but may differ in a detail not shown here. Equal entries are not always repeated.

How the values were obtained:
plasmin activity = biological target: T1, plasmin activity (Rattus norvegicus, UniProt Q01177); experiment: Rat plasma plasmin (plasminogen) activity ex vivo after oral dosing; type: in vivo; settings: rat plasma, individual animal; for PLG activity (Vmax), % change from Vehicle: vehicle mean 431.7
T1 construct: Plasma samples were collected via the abdominal aorta; from tissue; host or cells: Citrated plasma of orally dosed male Sprague Dawley rats
T1 sequence (Q01177 20-812 limits assumed): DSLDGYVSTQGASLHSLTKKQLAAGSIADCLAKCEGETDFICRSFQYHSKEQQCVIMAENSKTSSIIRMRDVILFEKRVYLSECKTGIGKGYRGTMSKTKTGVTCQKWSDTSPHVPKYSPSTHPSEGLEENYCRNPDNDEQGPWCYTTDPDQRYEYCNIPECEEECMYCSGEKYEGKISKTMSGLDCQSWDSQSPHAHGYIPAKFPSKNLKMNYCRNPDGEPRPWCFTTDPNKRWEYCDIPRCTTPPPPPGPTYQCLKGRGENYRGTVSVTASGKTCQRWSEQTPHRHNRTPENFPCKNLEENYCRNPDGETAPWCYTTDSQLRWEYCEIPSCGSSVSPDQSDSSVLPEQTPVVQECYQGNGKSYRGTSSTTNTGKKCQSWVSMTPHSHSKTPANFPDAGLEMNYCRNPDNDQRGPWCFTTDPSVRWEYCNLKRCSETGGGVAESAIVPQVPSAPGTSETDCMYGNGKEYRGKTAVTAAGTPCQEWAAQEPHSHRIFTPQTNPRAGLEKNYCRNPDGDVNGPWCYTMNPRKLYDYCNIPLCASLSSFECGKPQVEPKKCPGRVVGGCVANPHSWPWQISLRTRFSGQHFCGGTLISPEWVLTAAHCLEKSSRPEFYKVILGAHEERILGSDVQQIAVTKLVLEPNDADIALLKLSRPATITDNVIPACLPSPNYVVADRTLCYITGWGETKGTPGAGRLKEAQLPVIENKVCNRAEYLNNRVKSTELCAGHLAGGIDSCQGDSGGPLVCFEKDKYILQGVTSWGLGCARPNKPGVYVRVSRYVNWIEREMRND
Method: Male Sprague Dawley rats (Charles River, average body weight 310 g, aged eight to nine weeks old) were housed in cages with a standard light cycle (12-h light, 12-h dark), at room temperature (22 ± 4 °C), with a relative humidity of 30–70%. Rats were identified by numbers on the cage cards. After arrival, rats were fed on a normal diet (Harlan Teklad diet 2014) and randomized to treatment groups (n = 5 per group) by baseline plasma plasminogen concentration and activity using a BRAT. LSN3441732 and LY3473329 were administered QD orally at three dose levels (3.7, 12.3 and 37 mg kg^−1; 3.2, 10.5 and 31.6 mg kg^−1 per dose, respectively) or vehicle (10 ml kg^−1, 1% HEC, 0.25% Tween-80, Antifoam) for four days. Terminal blood was drawn under general anaesthesia 24 h after the day-4 oral dose. Plasma samples were collected via the abdominal aorta into a premeasured anticoagulant BD Vacutainer used for blood collection (2.7 ml, buffered sodium citrate). The liver was flash frozen in liquid nitrogen. To measure plasminogen activity, 100 µl plasma per well was added to a 96-well plate (Corning) and the following were added to the indicated concentrations: 7.5 mM CaCl2 and 117 mM NaCl. Wells were mixed and warmed to 37 °C. Urokinase (Millipore) was added at 125 U per well and the plate was incubated at 37 °C for 4 min. The plasminogen substrate Chromogenix S-2251 (DiaPharma) was added to a concentration of 3.3 mM. The mixture was added and the plate was sealed and placed in a prewarmed plate reader, shaken, and the absorbance read every 30 s for 2 h. The maximum slope for each curve was determined and the percentage inhibition was calculated relative to untreated controls. Plasminogen protein was measured using ELISA kits for rat (Abcam ab157740) according to the manufacturer’s instructions. Plasminogen activity (percentage) and mass (µg ml^−1) in rat were analysed by ANOVA in JMP 16.1.0. The percentage reduction of plasminogen activity and mass for each treated group was compared with vehicle by Dunnett’s method.

[1] = Pharmacokinetics in monkey plasma after oral dosing; type: in vivo; settings: Chinese cynomolgus
Lp(a) = Lp(a) levels in cynomolgus monkeys; type: in vivo, cynomolgus monkey (Macaca fascicularis); parameters: key to Mean_pCFB_vs_Veh / Mean_pCFB_vs_Veh (Lp(a)): % change from pre-dose, treated group compared with vehicle; key to Mean_pCFB / Mean_pCFB (Lp(a)): % change in Lp(a) from before dosing; Lp(a): unit not given here; settings: for Mean_pCFB_vs_Veh (Lp(a)) / Mean_pCFB (Lp(a)) / Lp(a) / pCFB (Lp(a) pct_chng_from_baseline): cynomolgus monkey; for Mean_pCFB_vs_Veh (Lp(a)): difference vs vehicle; for Mean_pCFB (Lp(a)): group mean; for Lp(a) / pCFB (Lp(a) pct_chng_from_baseline): individual animals
Method: Female or male Chinese Macaca fascicularis cynomolgus monkeys (as described in the figure legends) of unspecified ages with body weight ranging from 2.0 kg to 5.0 kg were housed in cages with a standard light cycle (12-h light, 12-h dark) at room temperature (20–26 °C); the relative humidity ranged from 30% to 70%. Monkeys were given fruits, vegetables or dietary enrichment as a form of environmental enrichment, and various cage enrichment devices. Purina Lab diet 5048C was provided BID and individual monkeys were identified by cage card. The monkeys were randomized to treatment groups by body weight and baseline plasma Lp(a) concentration, as determined by a commercially available Randox assay (Randox LP2757), using a BRAT for the study. In an example cynomolgus monkey study in which 39 monkeys were prescreened for baseline Lp(a) levels, the average Lp(a) level was 350 ± 57 µg ml^−1 (range 53–1,667 µg ml^−1). Monkeys were dosed orally with vehicle (purified water) or compounds QD or BID for 14 days, at dose levels and frequencies as previously described for each compound. Plasma samples were collected on days before dosing to establish baseline Lp(a) and after the morning dose during the study. Lp(a) levels were measured by an investigator who was blinded to group allocation using the Randox assay, and were quantified relative to the calibrator series (Randox LP3404). Data were analysed in GraphPad Prism v.9.5.1. The Lp(a) percentage change from before dosing in non-human primates was analysed by repeated measures ANOVA in SAS v.9.4 (SAS). At each time point, the Lp(a) percentage change for each treated group was compared with vehicle by the Bonferroni method.

[2] = 3473329 dose 3.2 mpk, 3.2 mg/kg
[3] = 3473329 dose 10.5 mpk, 10.5 mg/kg
[4] = 3473329 dose 31.6 mpk, 31.6 mg/kg

## O=C(O)[C@@H](Cc1cccc(CN(Cc2cccc(C[C@H](C(=O)O)[C@H]3CCNC3)c2)Cc2cccc(C[C@H](C(=O)O)[C@H]3CCNC3)c2)c1)[C@H]1CCNC1 [LY3473329]
Plasmin activity; [2]
  PLG activity (Vmax), Plasminogen (mean of replicates): 454.0 and 451.6 and 414.5 and 449.4 and 437.1
  PLG activity (Vmax), Replicate 1: 455.671 and 447.416 and 413.515 and 443.630 and 436.745
  PLG activity (Vmax), Replicate 2: 452.252 and 455.835 and 415.508 and 455.110 and 437.378
  PLG activity (Vmax), % change from Vehicle: 5.15% and 4.60% and -3.99% and 4.08% and 1.23%
Plasmin activity; [3]
  PLG activity (Vmax), Plasminogen (mean of replicates): 426.8 and 390.7 and 429.5 and 340.1 and 383.7
  PLG activity (Vmax), Replicate 1: 431.402 and 387.065 and 425.922 and 337.633 and 378.355
  PLG activity (Vmax), Replicate 2: 422.258 and 394.290 and 433.134 and 342.491 and 389.046
  PLG activity (Vmax), % change from Vehicle: -1.14% and -9.51% and -0.51% and -21.24% and -11.13%
Plasmin activity; [4]
  PLG activity (Vmax), Plasminogen (mean of replicates): 357.4 and 336.9 and 317.3 and 381.6 and 333.2
  PLG activity (Vmax), Replicate 1: 356.862 and 337.031 and 314.998 and 380.162 and 336.487
  PLG activity (Vmax), Replicate 2: 357.898 and 336.831 and 319.531 and 383.010 and 329.925
  PLG activity (Vmax), % change from Vehicle: -17.22% and -21.96% and -26.52% and -11.62% and -22.82%
[1]; oral 1 mg/kg, day 15
  Cmax: 911 ± 225 nM
[1]; oral 1 mg/kg, day 15, read-out: AUC(0-96 hr)
  AUC(0-t): 35.8 µM·h
[1]; oral 10 mg/kg, day 15
  Tmax: 30 min
[1]; oral 100 mg/kg, day 15
  Cmax: 4850 nM
Lp(a); 1mpk, D01
  Mean_pCFB_vs_Veh (Lp(a)): 4.27
  Mean_pCFB (Lp(a)): -0.85
Lp(a); 1mpk, D03
  Mean_pCFB_vs_Veh (Lp(a)): -6.51
  Mean_pCFB (Lp(a)): -12.33
Lp(a); 1mpk, D05
  Mean_pCFB_vs_Veh (Lp(a)): -6.39
  Mean_pCFB (Lp(a)): -14.05
Lp(a); 1mpk, D09
  Mean_pCFB_vs_Veh (Lp(a)): -13.72
  Mean_pCFB (Lp(a)): -21.85
Lp(a); 1mpk, D14
  Mean_pCFB_vs_Veh (Lp(a)): -22.18
  Mean_pCFB (Lp(a)): -34.04
Lp(a); 10mpk, D01
  Mean_pCFB_vs_Veh (Lp(a)): 3.91
  Mean_pCFB (Lp(a)): -1.2
Lp(a); 10mpk, D03
  Mean_pCFB_vs_Veh (Lp(a)): -29.92
  Mean_pCFB (Lp(a)): -35.74
Lp(a); 10mpk, D05
  Mean_pCFB_vs_Veh (Lp(a)): -32.94
  Mean_pCFB (Lp(a)): -40.6
Lp(a); 10mpk, D09
  Mean_pCFB_vs_Veh (Lp(a)): -36.99
  Mean_pCFB (Lp(a)): -45.13
Lp(a); 10mpk, D14
  Mean_pCFB_vs_Veh (Lp(a)): -48.11
  Mean_pCFB (Lp(a)): -59.97
Lp(a); 100mpk, D01
  Mean_pCFB_vs_Veh (Lp(a)): -15.98
  Mean_pCFB (Lp(a)): -21.09
Lp(a); 100mpk, D03
  Mean_pCFB_vs_Veh (Lp(a)): -38.35
  Mean_pCFB (Lp(a)): -44.17
Lp(a); 100mpk, D05
  Mean_pCFB_vs_Veh (Lp(a)): -32.35
  Mean_pCFB (Lp(a)): -40.01
Lp(a); 100mpk, D09
  Mean_pCFB_vs_Veh (Lp(a)): -50.18
  Mean_pCFB (Lp(a)): -58.32
Lp(a); 100mpk, D14
  Mean_pCFB_vs_Veh (Lp(a)): -61.77
  Mean_pCFB (Lp(a)): -73.62
Lp(a); 1mpk group, Day 1, Pre dose (baseline), 1 mg/kg
  Lp(a): 115.019 and 15.737 and 53.63 and 67.735 and 63.938
Lp(a); 1mpk, Day 1, 4hr, 1 mg/kg
  Lp(a): 97.491 and 117.597 and 16.395 and 53.808 and 66.137 and 65.184
Lp(a); 1mpk, Day 1, 1 mg/kg
  pCFB (Lp(a) pct_chng_from_baseline): -11.4161 and 2.241 and 4.181 and 0.3319 and -2.359 and 1.949
Lp(a); 1mpk, Day 3, 4hr, 1 mg/kg
  Lp(a): 91.721 and 112.368 and 11.704 and 47.474 and 63.489 and 56.499
Lp(a); 1mpk, Day 3, 1 mg/kg
  pCFB (Lp(a) pct_chng_from_baseline): -16.6589 and -2.305 and -25.6275 and -11.4787 and -6.269 and -11.6347
Lp(a); 1mpk, Day 5, 4hr, 1 mg/kg
  Lp(a): 85.692 and 109.155 and 11.192 and 45.131 and 70.165 and 53.752
Lp(a); 1mpk, Day 5, 1 mg/kg
  pCFB (Lp(a) pct_chng_from_baseline): -22.1371 and -5.098 and -28.881 and -15.8475 and 3.588 and -15.9311
Lp(a); 1mpk, Day 9, 4hr, 1 mg/kg
  Lp(a): 81.717 and 123.954 and 9.293 and 31.114 and 64.385
Lp(a); 1mpk, Day 9, 1 mg/kg
  pCFB (Lp(a) pct_chng_from_baseline): -25.7489 and 7.768 and -40.9481 and -41.984 and -4.946 and -25.2635
Lp(a); 1mpk, Day 14, 1 mg/kg
  pCFB (Lp(a) pct_chng_from_baseline): -43.1939 and -2.975 and -53.0914 and -46.914 and -15.7924 and -42.2472
Lp(a); 10mpk group, Day 1, Pre dose (baseline), 10 mg/kg
  Lp(a): 63.144 and 63.676 and 112.151 and 49.481 and 65.725 and 30.09
Lp(a); 10mpk, Day 1, 10 mg/kg
  pCFB (Lp(a) pct_chng_from_baseline): -0.54 and 5.215 and -3.008 and -7.112 and -1.928 and 0.1728
Lp(a); 10mpk, Day 3, 10 mg/kg
  pCFB (Lp(a) pct_chng_from_baseline): -40.1463 and -31.9398 and -31.5575 and -28.9606 and -53.8653 and -27.9495
Lp(a); 10mpk, Day 5, 4hr, 10 mg/kg
  Lp(a): 69.663 and 26.971 and 31.738 and 21.72
Lp(a); 10mpk, Day 5, 10 mg/kg
  pCFB (Lp(a) pct_chng_from_baseline): -39.4923 and -41.2165 and -37.8846 and -45.4922 and -51.7109 and -27.8166
Lp(a); 10mpk, Day 9, 4hr, 10 mg/kg
  Lp(a): 37.879 and 46.471 and 59.699 and 19.275 and 28.08 and 18.466
Lp(a); 10mpk, Day 9, 10 mg/kg
  pCFB (Lp(a) pct_chng_from_baseline): -40.0117 and -27.0196 and -46.7691 and -61.0457 and -57.2765 and -38.6308
Lp(a); 10mpk, Day 14, 4hr, 10 mg/kg
  Lp(a): 27.525 and 31.412 and 53.912 and 14.404 and 16.367 and 13.601
Lp(a); 10mpk, Day 14, 10 mg/kg
  pCFB (Lp(a) pct_chng_from_baseline): -56.4092 and -50.669 and -51.9291 and -70.8898 and -75.0978 and -54.7989
Lp(a); 100mpk group, Day 1, Pre dose (baseline), 100 mg/kg
  Lp(a): 63.503 and 134.003 and 31.483 and 50.567 and 61.834
Lp(a); 100mpk, Day 1, 4hr, 100 mg/kg
  Lp(a): 57.552 and 102.207 and 18.95 and 36.698 and 61.471
Lp(a); 100mpk, Day 1, 100 mg/kg
  pCFB (Lp(a) pct_chng_from_baseline): -39.8088 and -27.427 and -0.5871 and -9.371 and -23.7278
Lp(a); 100mpk, Day 3, 4hr, 100 mg/kg
  Lp(a): 37.977 and 67.885 and 16.507 and 23.074 and 46.465
Lp(a); 100mpk, Day 3, 100 mg/kg
  pCFB (Lp(a) pct_chng_from_baseline): -47.5685 and -54.3695 and -24.8553 and -40.1965 and -49.3407
Lp(a); 100mpk, Day 5, 4hr, 100 mg/kg
  Lp(a): 41.338 and 90.201 and 17.421 and 23.304 and 43.695
Lp(a); 100mpk, Day 5, 100 mg/kg
  pCFB (Lp(a) pct_chng_from_baseline): -32.6873 and -44.6654 and -53.9146 and -29.335 and -34.9039
Lp(a); 100mpk, Day 9, 4hr, 100 mg/kg
  Lp(a): 23.771 and 69.54 and 11.012 and 15.587 and 35.753
Lp(a); 100mpk, Day 9, 100 mg/kg
  pCFB (Lp(a) pct_chng_from_baseline): -48.1056 and -65.0224 and -69.1755 and -42.1791 and -62.5671
Lp(a); 100mpk, Day 14, 4hr, 100 mg/kg
  Lp(a): 22.568 and 43.526 and 4.973 and 14.913 and 14.296
Lp(a); 100mpk, Day 14, 100 mg/kg
  pCFB (Lp(a) pct_chng_from_baseline): -67.5186 and -84.2042 and -70.5084 and -76.88 and -64.4615
Lp(a); cynomolgus monkeys, 100 mg kg^−1 QD
  reduction of median Lp(a) levels compared with baseline: up to 71%
